The record followed here is article doi:10.1101/2020.02.18.954925v1 (biorxiv, 2020).

For this experiment, the target named is Lpg2603 10-C (Legionella pneumophila, UniProt Q5ZSB6). The experiment can be described thus: biochemical.

Usually Kd stands for the concentration at which binding is half-saturated.

Chain of Lpg2603 10-C (Q5ZSB6 10-434 limits assumed): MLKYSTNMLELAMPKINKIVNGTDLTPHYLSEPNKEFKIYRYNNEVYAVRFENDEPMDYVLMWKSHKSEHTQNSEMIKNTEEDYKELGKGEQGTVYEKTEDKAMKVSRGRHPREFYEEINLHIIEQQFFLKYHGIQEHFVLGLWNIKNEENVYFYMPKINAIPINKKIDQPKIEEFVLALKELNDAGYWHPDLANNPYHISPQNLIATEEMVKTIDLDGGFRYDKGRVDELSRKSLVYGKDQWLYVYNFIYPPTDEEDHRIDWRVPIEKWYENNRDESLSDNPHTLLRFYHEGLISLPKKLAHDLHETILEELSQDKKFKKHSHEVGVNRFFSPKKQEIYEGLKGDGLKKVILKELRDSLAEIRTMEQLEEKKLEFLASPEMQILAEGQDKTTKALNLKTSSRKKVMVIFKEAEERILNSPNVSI

Turning to `O=P(O)(O)O[C@H]1[C@H](OP(=O)(O)O)[C@@H](OP(=O)(O)O)[C@H](OP(=O)(O)O)[C@@H](OP(=O)(O)O)[C@H]1OP(=O)(O)O` [inositol hexakisphosphate], the Kd is approximately 315 µM.
